From PMC8150835, “An Smp43-Derived Short-Chain α-Helical Peptide Displays a Unique Sequence and Possesses Antimicrobial Activity against Both Gram-Positive and Gram-Negative Bacteria” (Toxins, 2021)
In brackets after ≈: the same amount, converted by molar mass. Entries after “also recorded” stand apart in the source; their conditions may differ. Where a SMILES comes first, the peptide text is derived from it.

Legend:
[1] = tested on: Pseudomonas aeruginosa ATCC27853; test: MIC determination (broth microdilution); type: cell-based; settings: MHB, 5 × 10^5 CFU/mL, peptide 0.625 to 40 μg/mL, 37 °C, 18 h, OD 630 nm
Procedure: (§1) The antimicrobial activities of the peptides were tested against S. aureus ATCC29213, E. faecalis ATCC29212, E. coli ATCC25922, K. pneumoniae ATCC700603, P. aeruginosa ATCC27853 and A. baumannii ATCC19606. All these strains were purchased from the China Center of Type Culture Collection (CCTCC).
(§2) The antimicrobial activities of the peptides were determined as previously described. Briefly, the bacteria were incubated at 37 °C and 150 rpm until the log phase of growth. Next, the bacteria were diluted with Mueller-Hinton broth (MHB, Oxoid, UK) and prepared in a clear round-bottom polypropylene 96-well microtiter plate to achieve a final concentration of 5 × 10^5 colony-forming unit (CFU)/mL. Twofold serial dilutions of the peptides were added into each well with the concentrations ranging from 0.625 to 40 μg/mL. The mixed peptides and cells were cultured at 37 °C and 150 rpm for 18 h, and the optical density (OD) was measured at 630 nm. The minimum inhibitory concentration was defined as the lowest peptide concentration with no detectable bacterial growth.

[2] = tested on: Staphylococcus aureus ATCC29213; test: MIC determination (broth microdilution); type: cell-based; settings: MHB, 5 × 10^5 CFU/mL, peptide 0.625 to 40 μg/mL, 37 °C, 18 h, OD 630 nm
Procedure: as §1, §2

[3] = tested on: Klebsiella pneumoniae ATCC700603; test: MIC determination (broth microdilution); type: cell-based; settings: MHB, 5 × 10^5 CFU/mL, peptide 0.625 to 40 μg/mL, 37 °C, 18 h, OD 630 nm
Procedure: as §1, §2

[4] = tested on: Escherichia coli ATCC25922; test: MIC determination (broth microdilution); type: cell-based; settings: MHB, 5 × 10^5 CFU/mL, peptide 0.625 to 40 μg/mL, 37 °C, 18 h, OD 630 nm
Procedure: as §1, §2

[5] = tested on: Acinetobacter baumannii ATCC19606; test: MIC determination (broth microdilution); type: cell-based; settings: MHB, 5 × 10^5 CFU/mL, peptide 0.625 to 40 μg/mL, 37 °C, 18 h, OD 630 nm
Procedure: as §1, §2

[6] = tested on: Enterococcus faecalis ATCC29212; test: MIC determination (broth microdilution); type: cell-based; settings: MHB, 5 × 10^5 CFU/mL, peptide 0.625 to 40 μg/mL, 37 °C, 18 h, OD 630 nm
Procedure: as §1, §2

[7] = tested on: human red blood cells; test: Hemolytic activity determination; type: cell-based; settings: 2% (v/v) hRBCs, peptide 12.5-200 μg/mL, 37 °C, 1 h, absorbance 540 nm; 1% Triton X-100 = 100%; three independent experiments
Procedure: The hemolytic activities of the peptides were determined against human red blood cells (hRBCs). Briefly, fresh hRBCs anticoagulated with sodium citrate were rinsed with 0.9% sodium chloride by centrifugation (1000× g, 5 min). Then, the cells were diluted to a final concentration of 2% (v/v) and prepared in a clear 96-well polypropylene microtiter plate. Next, the samples were mixed with a series of concentrations of the peptide (12.5, 25, 50, 100 and 200 μg/mL) and incubated at 37 °C for 1 h. After that, the samples were centrifuged (2000× g, 10 min), and the absorbances of the supernatants were measured at 540 nm to evaluate the release of hemoglobin. HRBCs treated with 1% Triton X-100 or 0.9% sodium chloride were taken as 100% and 0% hemolysis, respectively.

[8] = tested on: Gram-positive and Gram-negative bacteria (all bacterial strains tested); test: MIC determination, summary over all tested bacterial strains; type: cell-based; settings: summary over the six strains tested; MHB, 37 °C, 18 h, peptide 0.625 to 40 μg/mL
Procedure: as §1, §2

[9] = tested on: mouse fibroblast cell line L929; test: Cytotoxicity determination (CCK-8); type: cell-based; settings: L929 cells, peptide 0-100 μg/mL, 24 h, CCK-8, OD 450 nm; three independent experiments
Procedure: To determine the cytotoxicity of the peptide, the mouse fibroblast cell L929 (8000 cells per well) were seeded in a 96-well plate and incubated for 24 h in Dulbecco’s modified Eagle’s medium (DMEM, Gibco, USA) supplemented with 10% fetal bovine serum (FBS, Gibco, USA), 2 mM/L L-glutamine, 100 U/mL penicillin and […] streptomycin (1% P/S, Invitrogen, USA) at 37 °C in a 5% CO2 atmosphere. Then, a series of concentrations of the peptide (0, 5, 10, 20, 40, 60, 80 and 100 μg/mL) were added into each well and incubation was performed for 24 h. After that, the cytotoxicity of the peptide was measured with the CCK8 cell counting kit (Yeasen, Shanghai, China) by measuring the optical density at 450 nm.

[10] = tested on: tested pathogens; settings: reported for the parent peptide; cited from earlier work

Row | Compound | MIC [1] | MIC [2] | MIC [3] | MIC [4] | MIC [5] | MIC [6] | HC10: the concentration of the peptide that causes 10% hemolysis of human red blood cells [7] | MICs against the tested Gram-positive and Gram-negative bacterial species [8] | IC10: the concentration of the peptide that causes 10% inhibition of cell growth [9] | antimicrobial activity [10]
1 | CC[C@H](C)[C@H](NC(=O)[C@H](CCCCN)NC(=O)CNC(=O)[C@H](C)NC(=O)[C@@H](NC(=O)[C@H](CCCCN)NC(=O)[C@H](CCCCN)NC(=O)[C@@H](NC(=O)[C@H](Cc1c[nH]c2ccccc12)NC(=O)[C@H](CC(=O)O)NC(=O)[C@H](Cc1c[nH]c2ccccc12)NC(=O)[C@@H](NC(=O)CN)C(C)C)[C@@H](C)CC)[C@@H](C)O)C(=O)N[C@@H](Cc1c[nH]c2ccccc12)C(N)=O [Smp43(1-14)] (H-GVWDWIKKTAGKIW-NH2) | 10 µg/mL (≈ 5.93 µM) | 5 µg/mL (≈ 2.96 µM) | 10 µg/mL (≈ 5.93 µM) | 10 µg/mL (≈ 5.93 µM) | 5 µg/mL (≈ 2.96 µM) | 10 µg/mL (≈ 5.93 µM) | 75 µg/mL | 5 to 10 µg/mL | 92 µg/mL | 
2 | G-VWDWIKKTAGKIWNSEPVKALKSQALNAAKNFVAEKIGATPS [Smp43] |  |  |  |  |  |  |  |  |  | poor antimicrobial activities; also recorded: poor antimicrobial activity
3 | CC[C@H](C)[C@H](NC(=O)[C@H](CCCCN)NC(=O)CNC(=O)[C@H](C)NC(=O)[C@@H](NC(=O)[C@H](CCCCN)NC(=O)[C@H](CCCCN)NC(=O)[C@@H](NC(=O)[C@@H](N)Cc1c[nH]c2ccccc12)[C@@H](C)CC)[C@@H](C)O)C(=O)N[C@@H](Cc1c[nH]c2ccccc12)C(=O)N[C@@H](CC(N)=O)C(=O)N[C@@H](CO)C(=O)N[C@@H](CCC(=O)O)C(=O)N1CCC[C@H]1C(N)=O [Smp43(5-18)] (H-WIKKTAGKIWNSEP-NH2) | > 40 µg/mL | > 40 µg/mL | > 40 µg/mL | > 40 µg/mL | > 40 µg/mL | > 40 µg/mL | > 200 µg/mL |  |  | 
4 | CC[C@H](C)[C@H](NC(=O)[C@H](CCCCN)NC(=O)[C@H](CCC(=O)O)NC(=O)[C@H](C)NC(=O)[C@@H](NC(=O)[C@H](Cc1ccccc1)NC(=O)[C@H](CC(N)=O)NC(=O)[C@H](CCCCN)NC(=O)[C@H](C)NC(=O)[C@H](C)NC(=O)[C@H](CC(N)=O)NC(=O)[C@@H](N)CC(C)C)C(C)C)C(=O)NCC(=O)N[C@@H](C)C(N)=O [Smp43(27-40)] (H-LNAAKNFVAEKIGA-NH2) | > 40 µg/mL | > 40 µg/mL | > 40 µg/mL | > 40 µg/mL | > 40 µg/mL | > 40 µg/mL | > 200 µg/mL |  |  | 
5 | CC[C@H](C)[C@H](NC(=O)[C@H](CCCCN)NC(=O)CNC(=O)[C@H](C)NC(=O)[C@@H](NC(=O)[C@H](CCCCN)NC(=O)[C@H](CCCCN)NC(=O)[C@@H](NC(=O)[C@H](Cc1c[nH]c2ccccc12)NC(=O)[C@H](CC(=O)O)NC(=O)[C@@H](N)Cc1c[nH]c2ccccc12)[C@@H](C)CC)[C@@H](C)O)C(=O)N[C@@H](Cc1c[nH]c2ccccc12)C(=O)N[C@@H](CC(N)=O)C(=O)N[C@@H](CO)C(N)=O [Smp43(3-16)] (H-WDWIKKTAGKIWNS-NH2) | > 40 µg/mL | > 40 µg/mL | > 40 µg/mL | > 40 µg/mL | > 40 µg/mL | > 40 µg/mL | > 200 µg/mL |  |  | 
